Read-outs that look alike come from different tables or passages of the source.

Results on 1 molecule are retold here after patent US20240408081A1, “NOVEL SYNERGISTIC COMBINATIONS AND METHODS OF USE THEREOF FOR TREATING CANCERS” (UNIVERSITE DE BORDEAUX, priority 2021, published 2024).

What all share (format): cell-based, human
One test deals with BXdmg1 primary cells. Put plainly: Proliferation assay in primary DMG cells BXdmg1. The protocol:
Cell growth was measured with the In vitro Toxicology Assay kit (Sulforhodamine B, Sigma Aldrich, Saint Quentin Fallavier, France) according to manufacturer's instructions. Cells were plated at a density of 2000 cells per well in 96-well plates in triplicates. Absorbance was measured at 565 nm using the CLARIOstar multiplate reader (BMG Labtech, Champigny-sur-Marne, France) at indicated time points.
A DMG biopsy was received in the laboratory and dissociated using GentleMACs cell separator (Miltenyi Biotech, Paris, France) within 24h using MACSBrain Tumor Dissociation Kit (Miltenyi Biotech, Paris, France) and the standard GentleMACs brain tissue separation program. Cells yielded were cultivated in Amniomax C100SUP plus Amniomax C100 basal medium (Gibco, ThermoFisher, Illkirch Cedex, France). Molecular and cellular analysis of the biopsy were detailed in FIG. 7 (see Rahal, F., C. Capdevielle, B. Rousseau, J. Izotte, J. W. Dupuy, D. Cappellen, G. Chotard, M. Menard, J. Charpentier, V. Jecko, C. Caumont, E. Gimbert, C. F. Grosset and M. Hagedorn (2022). “An EZH2 blocker sensitizes histone mutated diffuse midline glioma to cholesterol metabolism inhibitors through an off-target effect.” Neurooncol Adv 4 (1): vdac018).

Test [1] deals with NEM157i and SU-DIPG-IVi DMG cells. Put plainly: Apoptosis assay (Annexin V-PE / 7-AAD flow cytometry) in DMG cells. The conditions noted are these: 5 days of treatment. The text has this: After exposure to drugs at indicated concentrations and times, cells were labeled with Annexin V-PE (BD Biosciences, Le Pont de Claix, France) and 7-AminoActinomycin D (7-AAD) (BD Bioscience) and analyzed using Flow Cytometry as described.

Test [2] relates to HMGCS, HMGCR, LDLR, NPC1 and SQLE. The experiment in a line: RT-qPCR and Western blot of lipid and cholesterol synthesis genes in DIPG cells. The note with it: GSK-126 at IC50 of each cell line. The method, then: Cell lysates were prepared by scraping cells using RIPA buffer (Sigma Aldrich) plus proteinase inhibitors (Sigma Aldrich) and centrifuged at 13000 g for 15 min at 4° C. Protein concentrations were measured using Pierce™ BCATM Protein Assays (ThermoFisher) and equal amounts of cell extracts were loaded for western blot analysis in 4-15% precasted polyacrylamide gel (Bio-Rad). Proteins were blotted on a nitrocellulose membrane (Transblot® Turbo midi-size, Bio Rad), blocked with the Odyssey blocking buffer (LI-COR Biosciences, ScienceTec, Les Ulis, France) or with BSA diluted in Tris-buffered saline with 0.1% Tween 20 (TBST) and probed with primary antibodies overnight at 4° C. […] Quantification was performed using ImageJ (National Institutes of Health, Bethesda, Maryland, USA).
Total RNA was isolated from cell lines with the TRI Reagent (Sigma) following manufacturer's instructions. For quantification of messenger RNA (mRNA) expression, total RNA was retrotranscribed using the Maxima Reverse Transcriptase (Thermo Scientific). […]

The subject of test [3] is DMG cell lines including primary BXdmg1 cells. The experiment in a line: DMG spheroid formation assay. The conditions noted are these: 24 hours; GSK-126 20 μM for NEM157i and 15 μM for the others. The protocol: For spheroid formation assays, 10^4 cells were used per well in a 96-well plate. Volume of methylcellulose/medium/cells and inhibitors (10, 15 or 20 μM) mixture per well was 100 μL with a final concentration of methylcellulose at 0.5%. After rapid and gentle homogenization, the mixture was placed on a round-bottom cell culture microplate (U-shaped) treated to limit cell adhesion. After, spheroids were incubated in an incubator at 37° C. and 5% CO2 for 24 hours. Photos and films of spheroids were taken by an InCellis cell imager (Bertin instruments, Montigny-le-bretonneux, France).

Another test has as its system HepG2 cells. The experiment in a line: Cell viability assay (CellTiter 96 AQueous One / MTS) in HepG2. The method, then:
For 2D culture, a total of 2,000 cells/well for Huh6 and 3,000 cells/well for HepG2 were seeded in 96-well microtiter plates. Cell growth was measured at 24 h, 48h, 72h or 96h after genetic manipulation and at 48h or 72h after drug treatment using the in vitro MTS assay Kit or Sulforhodamine B (SRB, Absorbance at 565 nm) assay (Sigma) following manufacturer's instructions. For 3D culture, spheroids were formed as described above and microplates were incubated in an IncuCyte® S3 live cell analysis system and scanned every 8 hours. For genetic manipulation, the lentiviral transductions or the gene depletions were done before the plating. For drug treatments, depending on the experiment and the drug, spheroids were treated at day 4 or 5 for 48h or 72h. Cell viability assay in spheroids was done using 1 μM calcein AM (BioLegend) and 2 μM ethidium homodimer 1 (Sigma) for 30 minutes at 37° C. Spheroids were imaged using an IncuCyte® S3 live cell analysis system. For all cell viability assays, drugs were used at half maximal inhibitory concentration (IC50).

Test [4] has as its system Huh6 and HepG2 cells. The experiment in a line: Lipid droplets assay in hepatoblastoma cells. The method, then:
The cells were plated in 6-well plate at a density of 250,000 cells per well. […] After 48 hours of treatment, the cells were fixed in 4% PFA for 15 minutes then stained with the red oil for 15 minutes at room temperature. Finally, cells were washed several times and scanned using InCellis microscope (Bertin Technologies, France).

The test system of test [5] is Huh6 and HepG2 cells. The experiment in a line: Clonogenicity assay. The note with it: GSK-126 3 and 4 μM for Huh6 and HepG2; ATR 8 μM; SIM 4 μM; 10 days. The method, then: Huh6 and HepG2 cells were seeded at 500 and 1000 cells/well respectively in 12-well plates. After attachment, cells were treated with drugs.
Following incubation at 37° C. for 10 days, the cells were fixed with 4% PFA and stained with 0.05% crystal violet. Reading under the Fusion FX (Vilber Lourmat).

Regarding `CC[C@H](C)n1cc(C)c2c(C(=O)NCc3c(C)cc(C)[nH]c3=O)cc(-c3ccc(N4CCNCC4)nc3)cc21` [GSK-126, 1-[(2S)-butan-2-yl]-N-[(4,6-dimethyl-2-oxo-1H-pyridin-3-yl)methyl]-3-methyl-6-[6-(1-piperazinyl)-3-pyridinyl]-4-indolecarboxamide], the IC50 was 10.4 µM with BXdmg1 primary cells, approximately 10 µM in the test with BXdmg1 primary cells (Homo sapiens) and 8 µM in the test with HepG2 cells (Homo sapiens). In test [1], the tumor cell apoptosis result is given as “increase in tumor cell apoptosis”. The “expression of HMGCS, HMGCR, LDLR, NPC1 and SQLE genes, and HMGCR and SQLE proteins” value in test [2] is listed as “induced”. The spheroid formation result in test [3] was “spheroid formation was affected”. In the test on HepG2 cells, this molecule displayed an IC25 dose of 4 µM. The synthesis of lipids entry in the test on Huh6 and HepG2 cells [4] is recorded as “triggered”. Moreover, in the test on Huh6 and HepG2 cells [5], the “proliferation and survival of hepatoblastoma cells (clonogenic cell assay)” value is recorded as “little effect”.
